Reference: US20050120493A1, “Process for exchanging the anions of cationic compounds” (priority 2002, published 2005)

Test: solubility in water of the dye salts before and after anion exchange
Assay type: physicochemical
Conditions: salt form of the cationic dye as given per example

In the case of `Cn1cc[n+](C)c1N=Nc1ccc(N)cc1.[Cl-]`, the water solubility is reported as 3.7%.

For `COc1ccc(Nc2ccc(/N=N/c3n(C)cc[n+]3C)cc2)cc1.[Cl-]`, the water solubility was 0.35%.

In the case of `CCN(CC)c1ccc2nc3ccc(=[N+](CC)CC)cc-3oc2c1`, the water solubility is reported as “less than 0.4%”.

Molecule `Cn1cc[n+](C)c1/N=N/c1ccc(NCCCCCCNc2ccc(/N=N/c3n(C)cc[n+]3C)cc2)cc1.[Cl-].[Cl-]` has a water solubility of less than 0.03%.
